Test results: article PMC4881381, “Subcellular Localization of Galloylated Catechins in Tea Plants [Camellia sinensis (L.) O. Kuntze] Assessed via Immunohistochemistry” (Frontiers in Plant Science, 2016)

Biological target: T1, anti-galloylated catechin monoclonal antibody (mAb) P6C2
T1 construct: whole purified mAb (~150 kDa; 50 kDa heavy and 25 kDa light chains), biotinylated
Assay: bio-layer interferometry (ForteBio Octet Red […], SSA biosensors); direct ELISA
Assay type: binding

| Compound | Kd [µM] |
| --- | --- |
| O=C(O[C@@H]1Cc2c(O)cc(O)cc2O[C@@H]1c1ccc(O)c(O)c1)c1cc(O)c(O)c(O)c1 [ECG, (-)-epicatechin-3-gallate] | 0.197 |
| O=C(O[C@@H]1Cc2c(O)cc(O)cc2O[C@@H]1c1cc(O)c(O)c(O)c1)c1cc(O)c(O)c(O)c1 [EGCG, (-)-epigallocatechin-3-gallate] | 9.25 |
